According to US20260041649A1, “ANTI-INFLAMMATORY AGENT” (WATANABE OYSTER LABORATORY, CO., LTD., priority 2023, published 2026):

Experiments:
[1] = tested on: RAW264.7 cells cultured with LPS; assay: Cell proliferation of RAW264.7 cells cultured with LPS; assay type: cell-based, mouse; details: DHMBA 1 or 10 μM, LPS 100 ng/ml, 3 days
Method: In FIG. 5A, to examine the effect on cell proliferation, RAW264.7 cells (1×10^5/ml/well) were cultured for 3 days in a DMEM culture medium containing 10% FBS, 1% P/S, and 1% fungizone in the control group (1% ethanol as final concentration) with or without LPS (1, 10, 50, 100, 500 ng/ml). In FIG. 5B, cells (1×10^5/ml per well) were cultured for 3 days in a DMEM culture medium containing 10% FBS, 1% P/S, and 1% fungizone in the DHMBA-treated group (1 or 10 μM) with or without LPS (100 ng/ml). In FIG. 5C, to examine the effect on cell death, cells that had reached subconfluence after 3 days of culture were cultured for another 48 hours in the control group (1% ethanol) with or without LPS (1, 10, 50, 100, or 500 ng/ml). In FIG. 5D, cells that had reached subconfluence were cultured for another 48 hours in the DHMBA-treated group (1 or 10 μM) with or without LPS (100 ng/ml). After the culture, the number of cells attached to the dish was counted. Data are presented as the mean±SD from a total of 8 wells in 2 plates using different cell preparations. *: Significant difference (p<0.01) versus the controls without LPS (gray bars) (FIG. 5A and FIG. 5C) or without DHMBA (gray bars) (FIG. 5B and FIG. 5D). […]
The number of viable cells was counted under a microscope (Olympus MTV-3) using a hemocytometer (Sigma-Aldrich) and a cell counter (H-102P, Line Seiki Co., Ltd., Tokyo, Japan).

[2] = tested on: mouse macrophage RAW264.7 cells; assay: Western blotting of cytokine signalling proteins with or without LPS; assay type: cell-based; details: DHMBA 10 μM, 5 hours
Method: Cells (1×10^6 cells/10 ml of medium) were cultured in a DMEM culture medium for 3 days until they reached subconfluence. After that, cells were cultured for another 5 hours in the control group (1% ethanol; DHMBA 0 M) and in the DHMBA-treated group (10 μM) with or without of LPS (100 ng/ml). After the culture, cell lysates were obtained for Western blot assay using specific antibodies against COX-1, COX-2, MAPK, phospho-MAPK, NF-κB p65, STAT3, and β-actin, as shown in FIG. 3.
Band intensities are presented as fold increase over the controls, under the following conditions: no LPS (FIG. 8B), LPS (100 ng/ml) alone (FIG. 8C), and LPS (100 ng/ml) plus DHMBA (10 μM) (FIG. 8D). Data are presented as the mean±SD of values obtained from 4 dishes using different cell preparations. *: Significant difference (p<0.01) versus the control without LPS (FIG. 8C). *: Significant difference (p<0.01) versus the control with LPS but without DHMBA (FIG. 8D). Statistical analysis was performed using 1-way ANOVA with Tukey-Kramer post-test.
To measure the expression levels of Cox-1, Cox-2, NF-κB p65, and STAT3, which are involved in cytokine signaling, RAW264.7 cells (1×10^6 cells/10 ml of 100 mm dish) were cultured in a DMEM culture medium containing 10% FS, 1% P/S, and 1% fungizone for 3 days until they reached subconfluence, and then cultured for another 5 hours in the control group (1% ethanol; DHMBA 0 μM as final concentration) and in the DHMBA-treated group (10 μM) with or without LPS (100 ng/ml in the medium). After the culture, the cells attached to the dish were scraped off with a cell lysis buffer and collected for measurement as described in the “Western blotting” section.
RAW264.7 cells (1×10^6 cells/10 ml of 100 mm dish) were cultured for 3 days in 10% FBS, 1% P/S (1% ethanol), or in the DHMBA-treated group (10 μM). After the culture, the dishes were washed with cold PBS (10 ml) to remove floating and dead cells. The cell lysis buffer (Cell Signaling Technology, Inc., Danvers, MA, USA) supplemented with protease/protein phosphatase inhibitor (Roche Diagnostics, Indianapolis, IN, USA) was added to the cells to collect cell lysates of the adherent cells as described in the previous study. The cell lysates were centrifuged at 17,000×g, 4° C. for 10 min. Protein concentrations in the supernatants were measured using Bio-Rad Protein Assay Dye (Bio-Rad Laboratories, Inc., Hercules, CA, USA) with bovine serum albumin as a standard. The cell lysates were stored at −80° C. until use. The supernatant proteins (40 μg/lane) were separated by SDS-polyacrylamide gel electrophoresis (12% SDS-PAGE) and transferred to a PVDF membrane. The transferred membranes were immunoblotted with specific antibodies against various proteins, including Ras (cat. no. 3339, rabbit), Akt (cat. no. 9272, rabbit), mitogen-activated protein kinase (MAPK; cat. no. 4695, rabbit), phosphorylated MAPK (cat. no. 4370, rabbit), mechanistic target of rapamycin (mTOR; cat. no. 4517, mouse), Rb (cat. no. 9309, mouse), p21 (cat. no. 2947, rabbit), STAT3 (cat. no. 12640, rabbit), COX-1 (cat. no. 48415), COX-2 (cat. no. 4842), and β-actin (cat. no. 3700, mouse), all of which were purchased from Cell Signaling Technology, Inc. (Danvers, MA, USA). Specific antibodies for p53 (cat. no. sc-126, mouse) and NF-κB p65 (cat. no. sc-109, rabbit) were purchased from Santa Cruz Biotechnology Inc. (Santa Cruz, CA, USA). Additionally, rabbit anti-regucalcin antibody (cat. no. HPA029103, rabbit) was obtained from Sigma-Aldrich. Target proteins were incubated overnight at 4° C. with one of the above primary antibodies (1:1,000). After incubation, the membranes were further incubated with horseradish peroxidase-conjugated secondary antibodies (Santa Cruz Biotechnology Inc., cat. no. sc-2005 (mouse) or sc-2305 (rabbit); dilution 1:2000) for 60 min at room temperature, and protein bands were detected using chemiluminescence substrates (cat. no. 34577, Thermo Fisher Scientific Inc., Rockford, IL, USA) on X-ray films. […]

`COc1c(O)cc(CO)cc1O` [DHMBA, 3,5-dihydroxy-4-methoxybenzyl alcohol] was tested, and the “proliferation of RAW264.7 cells in the presence of LPS” value [1] was “suppressed”, the “LPS-increased level of MAPK” value ([2]; LPS 100 ng/ml) was “suppressed” and the “LPS-increased level of NF-κB p65” value ([2]; LPS 100 ng/ml) was “suppressed”. The “LPS-increased level of STAT3” value ([2]; LPS 100 ng/ml) was “suppressed”, the “LPS-increased level of phospho-MAPK” value ([2]; LPS 100 ng/ml) was “suppressed” and the “level of COX-1” value ([2]; without LPS) was “not altered”. For the same compound, the “level of COX-2” value ([2]; without LPS) was “not altered”, the “level of MAPK” value ([2]; without LPS) was “not altered” and the “level of NF-κB p65” value ([2]; without LPS) was “not altered”. For the same compound, the “level of STAT3” value ([2]; without LPS) was “not altered” and the “level of phospho-MAPK” value ([2]; without LPS) was “not altered”.
